Data reported in publication PMC9030223, “MBP-11901 Inhibits Tumor Growth of Hepatocellular Carcinoma through Multitargeted Inhibition of Receptor Tyrosine Kinases” (Cancers, 2022).

Columns and labels:
C6 = test: CCK-8 cell proliferation/cytotoxicity assay; type: cell-based; conditions: Rattus norvegicus, C6, 24 h
Protocol: (§1) Cell proliferation was detected using the Cell Counting Kit-8 (CCK-8, Cat. CK04-13; Dojindo Laboratories, Kumamoto, Japan) according to the manufacturer’s instruction. To evaluate cytotoxicity, cells were seeded in a 96-well plate (FHC, 1 × 10^4 cells/well; Caki-2, PLC/PFR.5, and MCF 10A, 1 × 10^4 cells/well; AML12, HepG2, Hep3B, and Huh-7 1.2 × 10^4 cells/well; HeLa, HEK-293, A549, and PC-3, 1.5 × 10^4 cells/well; HT-29, MCF-7, C6, and NE-4C, 2 × 10^4 cells/well). After attachment and stabilization of cells for 24 h, the medium was switched with fresh containing various concentrations (0, 1, 5, 10, 25, 50, and 100 μM) of MBP-11901, and cells were incubated for 22 h. Next, CCK-8 solution was added to each well, and cells were incubated for another 2 h. Absorbance was then measured at 450 nm using a microplate reader (SpectraMax i3, Molecular Devices, San Jose, CA, USA). The IC50 and log IC50 values were calculated using GraphPad Prism (version 5.02; GraphPad PRISM software Inc. San Diego, CA, USA). All experiments were independently performed 3 times. The graph of log IC50 values represents average values.

Caki-2 = test: CCK-8 cell proliferation/cytotoxicity assay; type: cell-based; conditions: Homo sapiens, CAKI-2, 24 h
Protocol: as §1

[1] = system: FHC colon epithelial cells; test: CCK-8 cell proliferation/cytotoxicity assay; type: cell-based; conditions: Homo sapiens, FHC normal cells, 24 h
Protocol: as §1

HEK-293 = test: CCK-8 cell proliferation/cytotoxicity assay; type: cell-based; conditions: Homo sapiens, HEK293; HEK-293 normal cells, 24 h
Protocol: as §1

HeLa = test: CCK-8 cell proliferation/cytotoxicity assay; type: cell-based; conditions: Homo sapiens, 24 h
Protocol: as §1

Hep3B = test: CCK-8 cell proliferation/cytotoxicity assay; type: cell-based; conditions: Homo sapiens, 24 h treatment
Protocol: as §1

HepG2 = test: CCK-8 cell proliferation/cytotoxicity assay; type: cell-based; conditions: Homo sapiens; HepG2, 24 h treatment
Protocol: as §1

NE-4C = test: CCK-8 cell proliferation/cytotoxicity assay; type: cell-based; conditions: Mus musculus; NE-4C normal cells, 24 h
Protocol: as §1

PC3 = test: CCK-8 cell proliferation/cytotoxicity assay; type: cell-based; conditions: Homo sapiens, PC-3; PC3, 24 h
Protocol: as §1

PLC/PRF5 = test: CCK-8 cell proliferation/cytotoxicity assay; type: cell-based; conditions: Homo sapiens, PLC-PRF-5; PLC/PRF5, 24 h treatment
Protocol: as §1

[2] = system: phosphorylation of FLT3, VEGFR2, c-KIT, PDGFRβ and downstream signals in HepG2 cells; test: Western blot of kinase phosphorylation; type: cell-based, human; conditions: HepG2, exposure 10 to 120 min, concentration-dependent
Protocol: HepG2 cells were seeded in a 60 mm^2 culture dish at a density of 1.5 × 10^6 cells/dish and incubated for 24 h. […] Cells were harvested and protein extraction and Western blotting methods were performed as previously described. Membranes were incubated using the following diluted primary antibodies; PARP (1:1000 dilution), caspase-3 (1:1000 dilution), cleaved caspase-3 (1:1000 dilution), pFLT3 (1:500 dilution), Ras (1:1000 dilution), pc-Raf (1:1000 dilution), pMEK1/2 (1:1000 dilution), pERK1/2 (1:1000 dilution), pAKT (1:1000 dilution), pmTOR (1:1000 dilution), pVEGFR2 (1:1000 dilution), pPDGFR β (1:2000 dilution), and β-actin (1:1000 dilution) in Tris-HCl-based buffer containing 0.2% Tween-20 (T1027, Biosesang, Seongnam, Korea) (TBS-T; pH 7.5). Membranes were then incubated with horseradish-conjugated secondary antibodies (1:5000, Cell Signaling Technologies, Beverly, MA, USA) for 1 h at 25 °C. After washing with TBS-T, immunoreactive bands were visualized using the chemiluminescence western imaging system (Supernova-Q1800TM, Centronics, Daejeon, Korea). Band intensities were measured using ImageJ (Version 1.50i; US National Institutes of Health, Bethesda, MD, USA) and were normalized to β-actin.

Hep3B xenograft tumor = test: Hep3B subcutaneous xenograft; type: in vivo, mouse; conditions: once every 2 d, 12 administrations
Text: (§2) We further verified the effectiveness of MBP-11901 by constructing a mouse model in which Hep3B and Huh-7 were subcutaneously transplanted in addition to the human liver cancer cell line HepG2. In the case of Hep3B, the administration was initiated at a tumor volume of about 300 mm^3, once every 2 d, and the experiment was terminated after a total of 12 administrations (Figure S5). […] In contrast, tumors had completely disappeared in 1 out of 6 animals in the MBP-11901 group; 1 had only a trace of a tumor measuring approximately 30 mm^3, whereas the average tumor volume in the 6 animals was approximately 100 mm^3. […] Unlike Nexavar®, there were no side-effects relating to drug resistance or rapid tumor growth.

Huh-7 xenograft tumor = test: Huh-7 subcutaneous xenograft; type: in vivo, mouse; conditions: Huh-7 subcutaneously implanted model
Text: as §2

FLT3 = target: T1, FLT3 (Homo sapiens, UniProt P36888); test: KINOMEscan competition binding / KdELECT
T1 construct: purchased Eurofins DiscoverX Corporation
T1 sequence (P36888 27-993): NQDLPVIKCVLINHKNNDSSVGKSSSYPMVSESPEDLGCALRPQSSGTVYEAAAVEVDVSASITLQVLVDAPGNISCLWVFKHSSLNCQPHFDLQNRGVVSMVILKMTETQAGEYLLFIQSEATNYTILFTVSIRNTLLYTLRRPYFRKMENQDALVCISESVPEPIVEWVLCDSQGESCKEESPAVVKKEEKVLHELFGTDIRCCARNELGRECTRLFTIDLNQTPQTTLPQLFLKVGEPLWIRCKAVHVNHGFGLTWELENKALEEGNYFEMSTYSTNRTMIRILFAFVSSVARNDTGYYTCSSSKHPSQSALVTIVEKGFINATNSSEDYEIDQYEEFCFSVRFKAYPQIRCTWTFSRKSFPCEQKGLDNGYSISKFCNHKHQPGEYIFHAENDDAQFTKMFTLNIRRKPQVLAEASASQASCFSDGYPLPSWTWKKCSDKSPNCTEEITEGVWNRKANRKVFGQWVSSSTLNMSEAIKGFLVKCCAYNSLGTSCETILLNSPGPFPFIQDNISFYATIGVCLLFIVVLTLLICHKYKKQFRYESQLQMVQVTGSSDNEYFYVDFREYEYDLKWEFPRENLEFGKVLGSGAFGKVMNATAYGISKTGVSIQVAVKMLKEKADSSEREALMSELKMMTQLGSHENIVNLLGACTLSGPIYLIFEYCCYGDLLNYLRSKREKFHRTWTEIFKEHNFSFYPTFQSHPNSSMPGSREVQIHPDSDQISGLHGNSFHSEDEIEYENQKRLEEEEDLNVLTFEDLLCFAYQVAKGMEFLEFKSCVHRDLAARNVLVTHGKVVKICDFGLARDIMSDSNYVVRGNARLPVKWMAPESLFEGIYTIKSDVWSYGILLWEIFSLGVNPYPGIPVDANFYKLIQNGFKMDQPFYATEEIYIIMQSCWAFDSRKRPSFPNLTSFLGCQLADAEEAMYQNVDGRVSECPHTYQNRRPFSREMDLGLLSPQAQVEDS
Protocol: (§3) The profiling of MBP-11901 against a panel of 468 kinases was performed by DiscoverX using KINOMEscan technology, an active-site-dependent competition-binding assay (Eurofins DiscoverX Corporation, San Diego, CA, USA). Binding constants (Kd) were calculated by DiscoverX using KdELECT technology, a widely used assay for comparing selectivity across the kinome. The DiscoverX platform reports the thermodynamic Kd to facilitate direct comparison of inhibitor affinity across the kinome, independent of ATP concentration.

MAP4K2 = target: T2, MAP4K2 (Homo sapiens, UniProt Q12851); test: KINOMEscan competition binding / KdELECT
T2 construct: purchased Eurofins DiscoverX Corporation
T2 sequence (Q12851 whole entry): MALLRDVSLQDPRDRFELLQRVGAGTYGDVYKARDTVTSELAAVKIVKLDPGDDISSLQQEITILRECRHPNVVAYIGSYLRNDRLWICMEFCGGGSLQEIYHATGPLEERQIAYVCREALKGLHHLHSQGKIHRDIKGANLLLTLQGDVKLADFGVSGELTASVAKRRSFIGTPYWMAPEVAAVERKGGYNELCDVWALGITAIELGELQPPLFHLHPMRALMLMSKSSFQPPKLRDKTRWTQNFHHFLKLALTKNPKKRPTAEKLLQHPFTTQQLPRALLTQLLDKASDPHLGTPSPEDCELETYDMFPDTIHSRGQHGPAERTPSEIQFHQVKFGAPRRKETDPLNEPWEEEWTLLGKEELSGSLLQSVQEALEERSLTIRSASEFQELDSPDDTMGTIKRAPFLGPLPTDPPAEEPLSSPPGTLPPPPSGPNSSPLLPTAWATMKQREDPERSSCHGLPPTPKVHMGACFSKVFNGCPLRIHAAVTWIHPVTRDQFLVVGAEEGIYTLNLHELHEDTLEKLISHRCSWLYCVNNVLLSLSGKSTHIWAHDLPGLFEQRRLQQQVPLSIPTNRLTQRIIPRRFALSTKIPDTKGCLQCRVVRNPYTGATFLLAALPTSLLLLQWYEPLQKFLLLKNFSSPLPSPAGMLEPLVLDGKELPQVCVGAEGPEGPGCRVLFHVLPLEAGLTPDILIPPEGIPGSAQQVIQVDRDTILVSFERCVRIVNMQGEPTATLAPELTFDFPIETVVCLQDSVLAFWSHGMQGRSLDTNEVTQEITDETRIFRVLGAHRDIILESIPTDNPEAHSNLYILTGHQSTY
Protocol: as §3

MEK5 = target: T3, MEK5 (Homo sapiens, UniProt Q13163); test: KINOMEscan competition binding / KdELECT
T3 construct: purchased Eurofins DiscoverX Corporation
T3 sequence (Q13163 whole entry): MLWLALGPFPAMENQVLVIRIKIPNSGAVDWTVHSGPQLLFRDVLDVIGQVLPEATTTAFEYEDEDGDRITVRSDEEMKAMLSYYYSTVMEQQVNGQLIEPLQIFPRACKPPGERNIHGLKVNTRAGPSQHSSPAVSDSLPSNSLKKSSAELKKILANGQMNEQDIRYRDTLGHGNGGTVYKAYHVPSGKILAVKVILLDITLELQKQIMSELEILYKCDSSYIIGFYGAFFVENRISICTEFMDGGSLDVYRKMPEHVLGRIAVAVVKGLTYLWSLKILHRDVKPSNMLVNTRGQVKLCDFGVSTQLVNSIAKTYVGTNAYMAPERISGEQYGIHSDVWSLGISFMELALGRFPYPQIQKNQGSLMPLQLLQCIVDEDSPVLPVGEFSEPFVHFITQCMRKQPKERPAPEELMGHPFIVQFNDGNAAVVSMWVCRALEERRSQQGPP
Protocol: as §3

PDGFRβ = target: T4, PDGFRβ (Homo sapiens, UniProt P09619); test: KINOMEscan competition binding / KdELECT
T4 construct: purchased Eurofins DiscoverX Corporation
T4 sequence (P09619 33-1106): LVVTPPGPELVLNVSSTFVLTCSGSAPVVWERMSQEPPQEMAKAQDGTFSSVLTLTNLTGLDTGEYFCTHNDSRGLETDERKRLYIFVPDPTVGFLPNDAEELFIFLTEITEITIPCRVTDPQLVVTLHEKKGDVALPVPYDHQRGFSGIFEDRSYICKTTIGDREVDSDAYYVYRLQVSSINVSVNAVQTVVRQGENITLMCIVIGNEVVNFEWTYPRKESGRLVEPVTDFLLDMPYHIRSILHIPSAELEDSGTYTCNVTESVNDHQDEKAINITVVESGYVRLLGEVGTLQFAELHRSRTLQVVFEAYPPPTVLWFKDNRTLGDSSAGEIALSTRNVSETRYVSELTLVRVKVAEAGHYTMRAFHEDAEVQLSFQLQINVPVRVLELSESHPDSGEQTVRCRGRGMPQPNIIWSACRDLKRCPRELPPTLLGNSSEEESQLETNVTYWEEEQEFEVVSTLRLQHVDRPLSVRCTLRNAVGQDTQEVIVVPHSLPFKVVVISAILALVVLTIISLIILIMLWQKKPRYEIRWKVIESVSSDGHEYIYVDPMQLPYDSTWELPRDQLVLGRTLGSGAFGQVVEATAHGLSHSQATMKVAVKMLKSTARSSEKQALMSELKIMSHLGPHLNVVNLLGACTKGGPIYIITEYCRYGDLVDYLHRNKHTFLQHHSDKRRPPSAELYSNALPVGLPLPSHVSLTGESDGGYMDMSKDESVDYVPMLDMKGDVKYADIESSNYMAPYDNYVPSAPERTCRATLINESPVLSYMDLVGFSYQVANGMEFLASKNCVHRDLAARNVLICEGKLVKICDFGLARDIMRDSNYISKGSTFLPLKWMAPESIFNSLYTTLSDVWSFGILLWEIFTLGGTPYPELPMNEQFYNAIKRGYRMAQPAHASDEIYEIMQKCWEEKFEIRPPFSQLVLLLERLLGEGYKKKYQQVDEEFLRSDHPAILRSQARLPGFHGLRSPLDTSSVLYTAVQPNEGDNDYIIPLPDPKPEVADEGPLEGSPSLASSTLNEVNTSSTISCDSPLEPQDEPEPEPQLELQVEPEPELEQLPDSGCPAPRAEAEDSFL
Protocol: as §3

VEGFR2 = target: T5, VEGFR2 (Homo sapiens, UniProt P35968); test: KINOMEscan competition binding / KdELECT
T5 construct: purchased Eurofins DiscoverX Corporation
T5 sequence (P35968 20-1356): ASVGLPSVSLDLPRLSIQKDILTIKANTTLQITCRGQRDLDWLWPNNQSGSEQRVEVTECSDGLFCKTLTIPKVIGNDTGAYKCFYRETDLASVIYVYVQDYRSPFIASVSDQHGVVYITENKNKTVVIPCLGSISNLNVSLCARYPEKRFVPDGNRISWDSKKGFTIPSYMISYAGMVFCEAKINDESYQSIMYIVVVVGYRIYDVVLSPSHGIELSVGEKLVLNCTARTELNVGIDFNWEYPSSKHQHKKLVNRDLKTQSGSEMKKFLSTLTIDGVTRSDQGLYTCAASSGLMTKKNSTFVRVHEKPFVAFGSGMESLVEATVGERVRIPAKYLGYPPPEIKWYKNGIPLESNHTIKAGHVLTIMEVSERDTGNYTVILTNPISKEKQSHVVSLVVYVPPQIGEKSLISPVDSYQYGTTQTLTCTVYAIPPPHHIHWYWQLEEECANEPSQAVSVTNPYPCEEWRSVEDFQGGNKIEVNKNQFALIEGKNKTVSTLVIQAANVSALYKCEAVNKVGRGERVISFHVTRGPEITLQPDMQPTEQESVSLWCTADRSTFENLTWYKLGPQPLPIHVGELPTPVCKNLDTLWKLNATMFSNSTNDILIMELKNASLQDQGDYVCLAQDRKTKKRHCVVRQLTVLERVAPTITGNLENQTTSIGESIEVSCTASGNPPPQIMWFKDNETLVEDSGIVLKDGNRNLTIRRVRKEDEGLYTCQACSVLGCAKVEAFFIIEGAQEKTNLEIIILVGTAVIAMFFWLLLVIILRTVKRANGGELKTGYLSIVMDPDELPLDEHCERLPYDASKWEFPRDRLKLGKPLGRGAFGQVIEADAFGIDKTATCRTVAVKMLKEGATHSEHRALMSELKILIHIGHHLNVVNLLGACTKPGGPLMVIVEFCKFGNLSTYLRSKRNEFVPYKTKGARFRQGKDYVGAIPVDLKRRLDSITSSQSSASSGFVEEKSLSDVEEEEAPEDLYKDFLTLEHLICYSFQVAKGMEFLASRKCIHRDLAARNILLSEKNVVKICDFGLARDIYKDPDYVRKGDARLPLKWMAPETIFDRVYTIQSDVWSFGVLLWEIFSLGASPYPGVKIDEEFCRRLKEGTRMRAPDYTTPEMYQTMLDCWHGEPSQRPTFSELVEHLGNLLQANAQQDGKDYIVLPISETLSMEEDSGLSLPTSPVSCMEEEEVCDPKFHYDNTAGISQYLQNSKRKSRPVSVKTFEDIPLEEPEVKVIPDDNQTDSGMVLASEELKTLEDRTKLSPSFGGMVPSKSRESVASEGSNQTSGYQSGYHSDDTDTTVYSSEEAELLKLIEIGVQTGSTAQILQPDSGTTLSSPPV
Protocol: as §3

[3] = 10000 nM, lower = stronger binding, read-out: % Control

With `NCC(N)C(=O)Nc1ccc(-c2nc3ccccc3s2)cc1` (stereo not shown) [MBP-11901] the IC50 (C6) was 77.8 ± 9.73 µM, the IC50 (Caki-2) was 75.7 ± 3.44 µM and the IC50 [1] was 72.7 ± 1.99 µM. For the same compound, the IC50 (HEK-293) was 68.2 ± 2.79 µM, the IC50 (HeLa) was 41.9 ± 3.38 µM and the IC50 (Hep3B) was 16.8 ± 0.88 µM. The IC50 (HepG2) was 5.16 ± 1.37 µM, the IC50 (NE-4C) was 36.8 ± 3.66 µM and the IC50 (PC3) was 95 ± 0.82 µM. For the same compound, the IC50 (PLC/PRF5) was 18.6 ± 0.81 µM, the kinase phosphorylation [2] was “inhibited” and the “animals in which tumors had completely disappeared” value (Hep3B xenograft tumor) was 1 out of 6. For the same compound, the average tumor volume (Hep3B xenograft tumor; start about 300 mm^3, saline approx. 1400 mm^3) was “approximately 100 mm^3”, the tumor disappearance (Huh-7 xenograft tumor) was “did not result in tumor disappearance” and the tumor weight (Huh-7 xenograft tumor) was “significantly reduced”. The remaining binding at 10 µM (FLT3; [3]) was 16%, the Kd (FLT3; FLT3, mean ± S.D. (n = 2)) was 0.295 ± 0.005 µM and the remaining binding at 10 µM (MAP4K2; [3]) was 8.6%. For the same compound, the Kd (MAP4K2; MAP4K2, mean ± S.D. (n = 2)) was 1.1 µM, the remaining binding at 10 µM (MEK5; [3]) was 3.3% and the Kd (MEK5; MEK5) was over 30 µM. The remaining binding at 10 µM (PDGFRβ; [3]) was 33%, the Kd (PDGFRβ; PDGFRβ, mean ± S.D. (n = 2)) was 4 ± 0.22 µM and the remaining binding at 10 µM (VEGFR2; [3]) was 30%. For the same compound, the Kd (VEGFR2; VEGFR2, mean ± S.D. (n = 2)) was 3.55 ± 0.25 µM.
